The values that follow come from patent publication US20260191968A1, “PROTAC DEGRADERS OF MLLT1 AND/OR MLLT3” (DARK BLUE THERAPEUTICS LTD, priority 2024, published 2026).

Format in all cases: cell-based
Assay [1] deals with MV4-11 cells. As to the kind of experiment: MV4-11 cellular proliferative assay, Assay Format A (CellTiter-Glo, 120 hours). The settings on record: Homo sapiens. The method, then: An MV4-11 proliferation assay was used to test the ability of compounds to reduce cell viability. MV4-11 cells (ATCC #CRL9591) were grown in IMDM medium (11510596, Gibco) supplemented with 10% fetal bovine serum (F7524, Gibco) and 1% Penicillin/Streptomycin (15140-122, Gibco) at 37° C. with 5% CO2. Cells were seeded in 384-well Elplasia plates (4447, Corning) at a density of 50 cells/well and treated with vehicle (DMSO) or compounds (10 serial semi-log dilutions, 30 μM as top concentration).
After 120 hours of treatment, cells were incubated for 10 min at RT with the CellTiter-Glo (CTG) reagent (G7571, Promega). Measurement of the luminescence signal was performed on a microplate reader (Ensight, PerkinElmer). CTG reagent measures the amount of ATP, which is directly proportional to the number of cells, to determine the number of viable cells in culture.
The data were analysed as follows:
where x is the measured raw signal value of a well, (cr) is the median of the measured signal values for the Central Reference (DMSO) wells on a plate, (sr) is the median of the measured signal values for the Scale Reference (reference compound) wells on a plate.
where the experimental set-up assumes the Hill parameters in certain ranges: S0~Central Reference (CR) from normalization (=Bottom), Sinf~Scale Reference (SR) from normalization (=Top), nHill~1, AC50~within the measured concentration range.

A further assay has as its target T1, MLLT1 (Homo sapiens, UniProt Q03111).
T1 construct: host or cells: MV4-11
T1 sequence (Q03111 1-559): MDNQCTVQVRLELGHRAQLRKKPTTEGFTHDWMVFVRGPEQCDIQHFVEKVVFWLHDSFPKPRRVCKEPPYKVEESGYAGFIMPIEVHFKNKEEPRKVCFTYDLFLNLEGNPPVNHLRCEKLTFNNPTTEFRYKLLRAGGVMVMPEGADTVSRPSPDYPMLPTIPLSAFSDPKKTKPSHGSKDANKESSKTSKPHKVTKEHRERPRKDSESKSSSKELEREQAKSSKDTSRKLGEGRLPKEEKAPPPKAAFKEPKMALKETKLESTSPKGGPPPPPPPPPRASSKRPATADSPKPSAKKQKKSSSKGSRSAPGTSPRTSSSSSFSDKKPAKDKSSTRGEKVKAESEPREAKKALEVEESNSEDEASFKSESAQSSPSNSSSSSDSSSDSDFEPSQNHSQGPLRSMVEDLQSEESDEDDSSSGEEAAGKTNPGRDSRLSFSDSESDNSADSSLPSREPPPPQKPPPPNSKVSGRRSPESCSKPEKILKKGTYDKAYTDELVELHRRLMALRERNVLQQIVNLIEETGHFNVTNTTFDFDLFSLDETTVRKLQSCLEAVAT
The assay can be described thus: MLLT1 degradation assay in MV4-11 cells (JESS chemiluminescent detection), three concentrations, 24 h. The settings on record: with respect to DMSO control. In short, it runs like this: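 MV4-11 cells treated 24 h at 37° C, 5% CO2 with 1000, 100 and 10 nM compound (0.1% DMSO final). MLLT1 quantified by automated capillary chemiluminescent immunodetection; band peak area expressed as % degradation relative to DMSO control.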

Assay [2] deals with MV4-11 cells. The assay can be described thus: MV4-11 cellular proliferative assay, Assay Format B (CTG 2.0, 168 h). The settings on record: Homo sapiens, 168 h (7 days), CTG 2.0, read-out: IC50 (MV4-11 cellular proliferative assay, Assay format B). In short, it runs like this: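 MV4-11 cells seeded overnight in IMDM + 10% FBS, then exposed to 10-point, 3-fold dilutions from 1 uM or 100 nM top concentration (0.3% DMSO final) for 168 h at 37 °C. CTG 2.0 luminescence read; % viability vs DMSO control fitted by four-parameter logistic regression.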

`CN1CCC[C@@H]1c1cc2cnc(NC(=O)c3ccc(CCC4CCN(c5cccc6c5C(=O)N(C5CCC(=O)NC5=O)C6=O)CC4)cc3)cc2[nH]1` (stereo partly drawn) [Example 4, 4-(2-(1-(2-(2,6-dioxopiperidin-3-yl)-1,3-dioxoisoindolin-4-yl)piperidin-4-yl)ethyl)-N-(2-((R)-1-methylpyrrolidin-2-yl)-1H-pyrrolo[3,2-c]pyridin-6-yl)benzamide]: the IC50 with MV4-11 cells [1] was ≤ 0.1 µM. At MLLT1, the “MLLT1% Degradation @ 0.01 μM” value was “B (Category B: 50% ≤ B < 75% degradation)”, the “MLLT1% Degradation @ 0.1 μM” value was “A (Category A: A ≥ 75% degradation)” and the “MLLT1% Degradation @ 1 μM” value is listed as “A (Category A: A ≥ 75% degradation)”.

For the compound `CN1CCC[C@@H]1c1cc2cnc(NC(=O)c3ccc(-c4ccn(CCCC#Cc5cccc6c5CN(C5CCC(=O)NC5=O)C6=O)n4)cc3)cc2[nH]1` (mixture of isomers) [Example 20, 4-(1-(5-(2-(2,6-dioxopiperidin-3-yl)-1-oxoisoindolin-4-yl)pent-4-yn-1-yl)-1H-pyrazol-3-yl)-N-(2-((R)-1-methylpyrrolidin-2-yl)-1H-pyrrolo[3,2-c]pyridin-6-yl)benzamide], in the assay with MV4-11 cells [1], the IC50 is ≤ 0.1 µM. On MLLT1, the “MLLT1% Degradation @ 0.01 μM” value was “B (Category B: 50% ≤ B < 75% degradation)”, the “MLLT1% Degradation @ 0.1 μM” value is “B (Category B: 50% ≤ B < 75% degradation)” and the “MLLT1% Degradation @ 1 μM” value is given as “C (Category C: 25% ≤ C < 50% degradation)”.

Take `CN1CCC[C@@H]1c1cc2cnc(NC(=O)CCCCC3CCN(c4cccc5c4C(=O)N(C4CCC(=O)NC4=O)C5=O)CC3)cc2[nH]1` (stereo partly drawn) [Example 42, 5-(1-(2-(2,6-Dioxopiperidin-3-yl)-1,3-dioxoisoindolin-4-yl)piperidin-4-yl)-N-(2-((R)-1-methylpyrrolidin-2-yl)-1H-pyrrolo[3,2-c]pyridin-6-yl)pentanamide]: in the assay with MV4-11 cells [1], the IC50 is ≤ 0.1 µM. Also, at MLLT1, the “MLLT1% Degradation @ 0.1 μM” value was “B (Category B: 50% ≤ B < 75% degradation)” and the “MLLT1% Degradation @ 1 μM” value is given as “B (Category B: 50% ≤ B < 75% degradation)”.

Take `CN1CCC[C@@H]1c1cc2cnc(NC(=O)c3ccc(OCCCC#Cc4cccc5c4CN(C4CCC(=O)NC4=O)C5=O)cc3)cc2[nH]1` (stereo partly drawn) [Example 56, 4-((5-(2-(2,6-dioxopiperidin-3-yl)-1-oxoisoindolin-4-yl)pent-4-yn-1-yl)oxy)-N-(2-((R)-1-methylpyrrolidin-2-yl)-1H-pyrrolo[3,2-c]pyridin-6-yl)benzamide]: the IC50 in the assay on MV4-11 cells [1] was ≤ 0.1 µM. For the same compound, at MLLT1, the “MLLT1% Degradation @ 0.01 μM” value is “A (Category A: A ≥ 75% degradation)”, the “MLLT1% Degradation @ 0.1 μM” value is “A (Category A: A ≥ 75% degradation)” and the “MLLT1% Degradation @ 1 μM” value was “A (Category A: A ≥ 75% degradation)”.

As to `CN1CCC[C@@H]1c1cc2cnc(NC(=O)CCCC3CN(c4cccc5c4C(=O)N(C4CCC(=O)NC4=O)C5=O)C3)cc2[nH]1` (stereo partly drawn) [Example 48, 4-(1-(2-(2,6-dioxopiperidin-3-yl)-1,3-dioxoisoindolin-4-yl)azetidin-3-yl)-N-(2-((R)-1-methylpyrrolidin-2-yl)-1H-pyrrolo[3,2-c]pyridin-6-yl)butanamide], the half-maximal inhibitory concentration (IC50) in the assay on MV4-11 cells [1] was ≤ 0.1 µM.

As to `C[C@H]1CN(CC2CCN(c3cccc4c3CN(C3CCC(=O)NC3=O)C4=O)CC2)CCN1c1ccc(C(=O)Nc2cc3[nH]c([C@H]4CCCN4C)cc3cn2)cc1` (stereo partly drawn) [Example 132, 4-((2S)-4-((1-(2-(2,6-dioxopiperidin-3-yl)-1-oxoisoindolin-4-yl)piperidin-4-yl)methyl)-2-methylpiperazin-1-yl)-N-(2-((R)-1-methylpyrrolidin-2-yl)-1H-pyrrolo[3,2-c]pyridin-6-yl)benzamide], on MLLT1, the “MLLT1% Degradation @ 0.01 μM” value is reported as “B (Category B: 50% ≤ B < 75% degradation)”, the “MLLT1% Degradation @ 0.1 μM” value is “A (Category A: A ≥ 75% degradation)” and the “MLLT1% Degradation @ 1 μM” value is on record as “B (Category B: 50% ≤ B < 75% degradation)”. Moreover, in the assay with MV4-11 cells [2], the half-inhibitory concentration (IC50) was ≤ 0.1 µM.

Take `CN1CCC[C@@H]1c1cc2cnc(NC(=O)c3cccc(CCCCC#Cc4cccc5c4CN(C4CCC(=O)NC4=O)C5=O)c3)cc2[nH]1` (stereo partly drawn) [Example 96, 3-(6-(2-(2,6-dioxopiperidin-3-yl)-1-oxoisoindolin-4-yl)hex-5-yn-1-yl)-N-(2-((R)-1-methylpyrrolidin-2-yl)-1H-pyrrolo[3,2-c]pyridin-6-yl)benzamide]: at MLLT1, the “MLLT1% Degradation @ 0.01 μM” value is “A (Category A: A ≥ 75% degradation)”, the “MLLT1% Degradation @ 0.1 μM” value is on record as “A (Category A: A ≥ 75% degradation)” and the “MLLT1% Degradation @ 1 μM” value is given as “A (Category A: A ≥ 75% degradation)”. Besides, the IC50 with MV4-11 cells [2] is ≤ 0.1 µM.

Turning to `CN1CCC[C@@H]1c1cc2cnc(NC(=O)c3ccc(N4CCN(CCCC#Cc5cccc6c5CN(C5CCC(=O)NC5=O)C6=O)CC4)nc3)cc2[nH]1` (stereo partly drawn) [Example 149, 6-(4-(5-(2-(2,6-dioxopiperidin-3-yl)-1-oxoisoindolin-4-yl)pent-4-yn-1-yl)piperazin-1-yl)-N-(2-((R)-1-methylpyrrolidin-2-yl)-1H-pyrrolo[3,2-c]pyridin-6-yl)nicotinamide], at MLLT1, the “MLLT1% Degradation @ 0.01 μM” value was “A (Category A: A ≥ 75% degradation)”, the “MLLT1% Degradation @ 0.1 μM” value is given as “A (Category A: A ≥ 75% degradation)” and the “MLLT1% Degradation @ 1 μM” value was “A (Category A: A ≥ 75% degradation)”. Also, in the assay with MV4-11 cells [2], the concentration for half-maximal inhibition (IC50) is ≤ 0.1 µM.

Regarding `CN1CCC[C@@H]1c1cc2cnc(NC(=O)c3ccc(CCCC4CCN(c5cccc6c5CN([C@@H]5CCC(=O)NC5=O)C6=O)CC4)cc3F)cc2[nH]1` (relative stereo) [Example 176, 4-(3-(1-(2-((rel-R)-2,6-dioxopiperidin-3-yl)-1-oxoisoindolin-4-yl)piperidin-4-yl)propyl)-2-fluoro-N-(2-((R)-1-methylpyrrolidin-2-yl)-1H-pyrrolo[3,2-c]pyridin-6-yl)benzamide], at MLLT1, the “MLLT1% Degradation @ 0.01 μM” value is “A (Category A: A ≥ 75% degradation)”, the “MLLT1% Degradation @ 0.1 μM” value is given as “A (Category A: A ≥ 75% degradation)” and the “MLLT1% Degradation @ 1 μM” value was “A (Category A: A ≥ 75% degradation)”. Besides, the IC50 in the assay with MV4-11 cells [2] is ≤ 0.1 µM.

For the compound `CN1CCC[C@@H]1c1cc2cnc(NC(=O)c3cc(F)c(CCCCC#Cc4cccc5c4CN(C4CCC(=O)NC4=O)C5=O)c(F)c3)cc2[nH]1` (stereo partly drawn) [Example 156, 4-(6-(2-(2,6-dioxopiperidin-3-yl)-1-oxoisoindolin-4-yl)hex-5-yn-1-yl)-3,5-difluoro-N-(2-((R)-1-methylpyrrolidin-2-yl)-1H-pyrrolo[3,2-c]pyridin-6-yl)benzamide], at MLLT1, the “MLLT1% Degradation @ 0.01 μM” value was “A (Category A: A ≥ 75% degradation)”, the “MLLT1% Degradation @ 0.1 μM” value is recorded as “A (Category A: A ≥ 75% degradation)” and the “MLLT1% Degradation @ 1 μM” value is reported as “A (Category A: A ≥ 75% degradation)”. The IC50 in the assay on MV4-11 cells [2] was ≤ 0.1 µM.

Consider `CN1CCC[C@@H]1c1cc2cnc(NC(=O)c3ccc(OCCC4CCN(c5cccc6c5CN(C5CCC(=O)NC5=O)C6=O)CC4)cc3F)cc2[nH]1` (mixture of isomers) [Example 171, 4-(2-(1-(2-(2,6-dioxopiperidin-3-yl)-1-oxoisoindolin-4-yl)piperidin-4-yl)ethoxy)-2-fluoro-N-(2-((R)-1-methylpyrrolidin-2-yl)-1H-pyrrolo[3,2-c]pyridin-6-yl)benzamide], for which, on MLLT1, the “MLLT1% Degradation @ 0.01 μM” value is “A (Category A: A ≥ 75% degradation)”, the “MLLT1% Degradation @ 0.1 μM” value is “A (Category A: A ≥ 75% degradation)” and the “MLLT1% Degradation @ 1 μM” value is given as “A (Category A: A ≥ 75% degradation)”. Also, in the assay on MV4-11 cells [2], the IC50 was ≤ 0.1 µM.
